# In PubChem BioAssay (NCI):
#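 Dose response: 5 concentrations. Exposure: 48 h. Format: 96-well plates. Endpoint: linear interpolation; highest concentration if not reached. TGI: total growth inhibition.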
# What was measured:
# Assay in all cases: inhibition of tumour cell growth, NCI panel, 48 h
# [1] = tested on: 786-0 renal
# [2] = tested on: A498 renal
# [3] = tested on: A549 NSCLC
# [4] = tested on: ACHN renal
# [5] = tested on: CAKI-1 renal
# [6] = tested on: CCRF-CEM leukemia
# [7] = tested on: COLO 205 colon
# [8] = tested on: DLD-1 colon
# [9] = tested on: DMS 114 small cell lung
# [10] = tested on: DMS 273 small cell lung
# [11] = tested on: EKVX NSCLC
# [12] = tested on: HCT-116 colon
# [13] = tested on: HCT-15 colon
# [14] = tested on: HOP-62 NSCLC
# [15] = tested on: HT29 colon
# [16] = tested on: IGROV1 ovarian
# [17] = tested on: K-562 leukemia
# [18] = tested on: KM12 colon
# [19] = tested on: KM20L2 colon
# [20] = tested on: LOX IMVI melanoma
# [21] = tested on: LXFL 529 NSCLC
# [22] = tested on: M14 melanoma
# [23] = tested on: M19-MEL melanoma
# [24] = tested on: MALME-3M melanoma
# [25] = tested on: MOLT-4 leukemia
# [26] = tested on: NCI-H226 lung
# [27] = tested on: NCI-H23 lung
# [28] = tested on: NCI-H460 lung
# [29] = tested on: NCI-H522 lung
# [30] = tested on: OVCAR-3 ovarian
# [31] = tested on: OVCAR-4 ovarian
# [32] = tested on: OVCAR-5 ovarian
# [33] = tested on: OVCAR-8 ovarian
# [34] = tested on: RPMI-8226 leukemia
# [35] = tested on: RXF 393 renal
# [36] = tested on: SF-268 CNS
# [37] = tested on: SF-295 CNS
# [38] = tested on: SF-539 CNS
# [39] = tested on: SK-MEL-2 melanoma
# [40] = tested on: SK-MEL-28 melanoma
# [41] = tested on: SK-MEL-5 melanoma
# [42] = tested on: SK-OV-3 ovarian
# [43] = tested on: SN12C renal
# [44] = tested on: SNB-19 CNS
# [45] = tested on: SNB-75 CNS
# [46] = tested on: SNB-78 CNS
# [47] = tested on: SW-620 colon
# [48] = tested on: TK-10 renal
# [49] = tested on: U251 CNS
# [50] = tested on: UACC-257 melanoma
# [51] = tested on: UACC-62 melanoma
# [52] = tested on: UO-31 renal
# [53] = tested on: XF 498 CNS
# [54] = tested on: HCC-2998 colon
# [55] = tested on: HOP-92 NSCLC
# [56] = tested on: SR leukemia
compound,measurement,setting,value
NC(N)=NS(=O)(=O)c1ccc(NC(=O)c2cccc3cc4ccccc4nc23)cc1,TGI,[1],> 100 µM
same,TGI,[2],> 100 µM
same,TGI,[3],> 100 µM
same,TGI,[4],> 100 µM
same,TGI,[5],> 100 µM
same,TGI,[6],> 100 µM
same,TGI,[7],> 100 µM
same,TGI,[8],> 100 µM
same,TGI,[9],> 100 µM
same,TGI,[10],> 100 µM
same,TGI,[11],> 100 µM
same,TGI,[12],> 100 µM
same,TGI,[13],> 100 µM
same,TGI,[14],> 100 µM
same,TGI,[15],> 100 µM
same,TGI,[16],> 100 µM
same,TGI,[17],> 100 µM
same,TGI,[18],> 100 µM
same,TGI,[19],> 100 µM
same,TGI,[20],> 100 µM
same,TGI,[21],> 100 µM
same,TGI,[22],> 100 µM
same,TGI,[23],> 100 µM
same,TGI,[24],> 100 µM
same,TGI,[25],> 100 µM
same,TGI,[26],> 100 µM
same,TGI,[27],> 100 µM
same,TGI,[28],> 100 µM
same,TGI,[29],> 100 µM
same,TGI,[30],> 100 µM
same,TGI,[31],85.7 µM
same,TGI,[32],> 100 µM
same,TGI,[33],> 100 µM
same,TGI,[34],> 100 µM
same,TGI,[35],> 100 µM
same,TGI,[36],> 100 µM
same,TGI,[37],> 100 µM
same,TGI,[38],> 100 µM
same,TGI,[39],> 100 µM
same,TGI,[40],> 100 µM
same,TGI,[41],> 100 µM
same,TGI,[42],> 100 µM
same,TGI,[43],> 100 µM
same,TGI,[44],31.8 µM
same,TGI,[45],> 100 µM
same,TGI,[46],> 100 µM
same,TGI,[47],> 100 µM
same,TGI,[48],> 100 µM
same,TGI,[49],> 100 µM
same,TGI,[50],> 100 µM
same,TGI,[51],> 100 µM
same,TGI,[52],> 100 µM
same,TGI,[53],> 100 µM
O=C1c2ccccc2C(=O)c2c1ccc(O)c2O,TGI,[1],> 100 µM
same,TGI,[2],> 100 µM
same,TGI,[4],> 100 µM
same,TGI,[5],> 100 µM
same,TGI,[6],> 100 µM
same,TGI,[7],> 100 µM
same,TGI,[8],> 100 µM
same,TGI,[10],> 100 µM
same,TGI,[11],> 100 µM
same,TGI,[54],> 100 µM
same,TGI,[12],> 100 µM
same,TGI,[13],> 100 µM
same,TGI,[14],> 100 µM
same,TGI,[55],> 100 µM
same,TGI,[15],> 100 µM
same,TGI,[16],> 100 µM
same,TGI,[17],> 100 µM
same,TGI,[18],> 100 µM
same,TGI,[20],> 100 µM
same,TGI,[21],> 100 µM
same,TGI,[22],> 100 µM
same,TGI,[23],> 100 µM
same,TGI,[25],> 100 µM
same,TGI,[26],> 100 µM
same,TGI,[27],> 100 µM
same,TGI,[28],> 100 µM
same,TGI,[29],> 100 µM
same,TGI,[30],> 100 µM
same,TGI,[31],> 100 µM
same,TGI,[32],> 100 µM
same,TGI,[33],> 100 µM
same,TGI,[34],> 100 µM
same,TGI,[35],88.7 µM
same,TGI,[36],> 100 µM
same,TGI,[37],> 100 µM
same,TGI,[38],> 100 µM
same,TGI,[39],> 100 µM
same,TGI,[40],> 100 µM
same,TGI,[43],> 100 µM
same,TGI,[44],> 100 µM
same,TGI,[45],69.2 µM
same,TGI,[56],> 100 µM
same,TGI,[47],> 100 µM
same,TGI,[48],> 100 µM
same,TGI,[49],> 100 µM
same,TGI,[50],> 100 µM
same,TGI,[51],55.3 µM
same,TGI,[52],> 100 µM
same,TGI,[53],> 100 µM
